Marks after values point to notes of the source that are not given here.
System: male Sprague-Dawley rats
Assay: EEG/EMG/Tcore/LMA telemetry sleep study 1 (SB-334867 vs ZOL)
Assay type: in vivo, rat
Procedure: All rodent electroencephalograph (EEG) studies were performed at SRI International. Three groups of eight male Sprague-Dawley rats (300±25 g; Charles River, Wilmington, MA) were implanted with chronic recording devices (F40-EET, Data Sciences Inc., St Paul, MN) for continuous recordings of EEG, electromyograph (EMG), core body temperature (Tcore), and LMA via telemetry as previously described. Data recording and scoring were performed as previously reported (see also Supplemental Material and Methods). The EEG and EMG data were scored in 10 sec epochs for waking (W), rapid eye movement sleep (REM), and non-REM sleep (NR). Tcore and LMA (counts per minute) were analyzed as hourly means. Data from the EEG studies are reported in hourly means such that the hourly time ZT1 refers to the hour between time points ZT0 and ZT1.
For each of the three separate studies, a repeated measures counter-balanced design was employed in which each rat received five separate dosings. […] All dosings were administered ip in a volume of 2 ml/kg. A minimum of 3 d elapsed between doses. Dosing occurred during the middle of the rats’ normal active period at the start of ZT19 and was typically completed within 10 min. Animals were continuously recorded for 6 h prior to dosing and for 18 h following dosing.

## Cc1nc2ccc(NC(=O)Nc3ccnc4cccnc34)cc2o1.Cl [SB-334867, 1-(2-methylbenzoxazol-6-yl)-3-[1], [5]naphthyridin-4-yl-urea hydrochloride]
3 and 30 mg/kg ip, first 4 and 6 h periods
  cumulative NR (in words): increased cumulative NR
6 h Average, 3 mg/kg ip
  NR bout duration: 1.17 ± 0.12 ^+
  REM bout duration: 1.28 ± 0.14^+
  W bout duration: 4.29 ± 0.34
6 h Average, 10 mg/kg ip
  NR bout duration: 1.00 ±0.12 ^+
  REM bout duration: 1.24 ±0.14^+
  W bout duration: 4.19 ±0.30
6 h Average, 30 mg/kg ip
  NR bout duration: 1.18 ± 0.12 ^+
  REM bout duration: 1.05 ± 0.08^+
  W bout duration: 3.87 ± 0.21
6 h Total, 3 mg/kg ip
  Number of NR bouts: 72.88 ± 5.37
  Number of REM bouts: 15.25 ±2.54
  Number of W bouts: 61.5 ±5.45
6 h Total, 10 mg/kg ip
  Number of NR bouts: 76.13 ± 4.99
  Number of REM bouts: 14.38 ± 1.55
  Number of W bouts: 64.13 ± 3.89
6 h Total, 30 mg/kg ip
  Number of NR bouts: 71.38 ± 2.20
  Number of REM bouts: 19.25 ± 1.50*^+
  Number of W bouts: 65.38 ± 3.54
ZT3, 10 and 30 mg/kg ip, vs vehicle
  NR during the subsequent light period (in words): NR decreased
ZT19, 3 mg/kg ip
  NR bout duration: 1.02 ± 0.14^+
  Number of NR bouts: 4.63 ± 2.07
  Number of REM bouts: 0.50 ± 0.33
  Number of W bouts: 2.88 ± 0.93
  REM bout duration: 1.21 ± 0.38^+
  W bout duration: 31.21 ± 8.79
ZT19, 10 mg/kg ip
  NR bout duration: 1.56 ± 0.59
  Number of NR bouts: 7.88 ± 2.52
  Number of REM bouts: 1.00 ± .050
  Number of W bouts: 6.25 ± 1.78
  REM bout duration: 0.95 ± 0.09
  W bout duration: 16.83 ± 6.40
ZT19, 30 mg/kg ip
  NR bout duration: 1.29 ± 0.24
  Number of NR bouts: 7.75 ± 1.93
  Number of REM bouts: 1.50 ± 0.46
  Number of W bouts: 5.75 ± 1.10
  REM bout duration: 1.04 ± 0.27
  W bout duration: 13.73 ± 6.71
ZT20, 3 mg/kg ip
  NR bout duration: 1.29 ± 0.15^+
  Number of NR bouts: 16.25 ± 2.43
  Number of REM bouts: 4.38 ± 1.21
  Number of W bouts: 12.25 ± 2.06
  REM bout duration: 1.34 ± 0.16^+
  W bout duration: 3.39 ± 0.78
ZT20, 10 mg/kg ip
  NR bout duration: 1.14 ± 0.12^+
  Number of NR bouts: 17.50 ± 3.34
  Number of REM bouts: 4.38 ± 1.19
  Number of W bouts: 13.88 ± 2.94
  REM bout duration: 1.16 ± 0.14^+
  W bout duration: 9.58 ± 7.23
ZT20, 30 mg/kg ip
  NR bout duration: 1.41 ± 0.26^+
  Number of NR bouts: 13.75 ± 1.79
  Number of REM bouts: 3.88 ± 0.99
  Number of W bouts: 12.63 ± 1.53
  REM bout duration: 1.27 ± 0.14^+
  W bout duration: 3.30 ± 0.88
ZT21, 3 mg/kg ip
  NR bout duration: 1.45 ± 0.28
  Number of NR bouts: 20.75 ± 2.40
  Number of REM bouts: 5.63 ± 0.65
  Number of W bouts: 16.38 ± 1.96
  REM bout duration: 1.28 ± 0.18
  W bout duration: 1.44 ± 0.20
ZT21, 10 mg/kg ip
  NR bout duration: 1.13 ± 0.25
  Number of NR bouts: 18.13 ± 2.03
  Number of REM bouts: 3.75 ± 0.82
  Number of W bouts: 14.88 ± 1.83

Reference: paper PMC3388080 (PLoS ONE, 2012)
